# According to patent publication US11427567B2, “Imidazolyl pyrimidinylamine compounds as CDK2 inhibitors” (Incyte Corporation, priority 2019, dated 2022):
# pIC50: −log10 of the molar value.
# Target: CDK2/Cyclin E1 (Homo sapiens (Human), UniProt P24941)
# Assay: CDK2/Cyclin E1 HTRF enzyme activity assay (Example A)
# Format: biochemical
# Details: 1 mM ATP
# Protocol: Assays were conducted in white 384-well polystyrene plates in a final reaction volume of 8 μL. […] HTRF signals were read after 1 hour at room temperature on a PHERAstar FS plate reader (BMG Labtech). Data was analyzed with IDBS XLFit and GraphPad Prism 5.0 software using a three or four parameter dose response curve to determine IC50 for each compound.
row,pIC50,Compound
1,≥ 7.30,"Cc1nc(-c2nc(NC3CCN(S(C)(=O)=O)CC3)ncc2C(F)(F)F)cn1-c1ccc(C2CN(CC3(O)CC3)C2)cc1F [Example 422, 1-((3-(3-Fluoro-4-(2-methyl-4-(2-((1-(methylsulfonyl)piperidin-4-yl)amino)-5-(trifluoromethyl)pyrimidin-4-yl)-1H-imidazol-1-yl)phenyl)azetidin-1-yl)methyl)cyclopropan-1-ol]"
2,≥ 7.30,"CS(=O)(=O)N1CCC(Nc2ncc(C(F)(F)F)c(-c3cn(-c4ccc5nccnc5c4C#N)cn3)n2)CC1 [Example 167, 6-(4-(2-((1-(Methylsulfonyl)piperidin-4-yl)amino)-5-(trifluoromethyl)pyrimidin-4-yl)-1H-imidazol-1-yl)quinoxaline-5-carbonitrile]"
3,≥ 7.30,"Cc1nn(C)cc1-c1ccc(-n2cc(-c3nc(NC4CCN(S(C)(=O)=O)CC4)ncc3C(F)(F)F)nc2C)c(F)c1 [Example 127, 4-(1-(4-(1,3-Dimethyl-1H-pyrazol-4-yl)-2-fluorophenyl)-2-methyl-1H-imidazol-4-yl)-N-(1-(methylsulfonyl)piperidin-4-yl)-5-(trifluoromethyl)pyrimidin-2-amine]"
4,≥ 7.30,"Cc1ccc(-n2cnc(-c3nc(NC4CCN(S(=O)(=O)c5cnn(C)c5C)CC4)ncc3C(F)(F)F)c2)c(C#N)n1 [Example 90, 3-(4-(2-((1-((1,5-Dimethyl-1H-pyrazol-4-yl)sulfonyl)piperidin-4-yl)amino)-5-(trifluoromethyl)pyrimidin-4-yl)-1H-imidazol-1-yl)-6-methylpicolinonitrile]"
5,≥ 7.30,"CNCc1ccc(-n2cnc(-c3nc(N[C@@H]4CCN(S(C)(=O)=O)C[C@H]4F)ncc3C(F)(F)F)c2)c(Cl)c1 [Example 225, 4-(1-(2-Chloro-4-((methylamino)-methyl)phenyl)-1H-imidazol-4-yl)-N-((3R,4R)-3-fluoro-1-(methylsulfonyl)-piperidin-4-yl)-5-(trifluoromethyl)-pyrimidin-2-amine]"
6,≥ 7.30,"CNCc1ccc(-n2cnc(-c3nc(NC4CCN(S(C)(=O)=O)CC4)ncc3C#N)c2)c(Cl)c1 [Example 226, 4-(1-(2-Chloro-4-((methylamino)-methyl)phenyl)-1H-imidazol-4-yl)-2-((1-(methylsulfonyl)-piperidin-4-yl)-amino)pyrimidine-5-carbonitrile]"
7,≥ 7.30,"Cn1cnc(-c2nc(NC3CCN(S(=O)(=O)c4cn(C)cn4)CC3)ncc2C(F)(F)F)c1 [Example 10, 4-(1-Methyl-1H-imidazol-4-yl)-N-(1-((1-methyl-1H-imidazol-4-yl)sulfonyl)piperidin-4-yl)-5-(trifluoromethyl)pyrimidin-2-amine]"
8,≥ 7.30,"CS(=O)(=O)N1CCC(Nc2ncc(C(F)(F)F)c(-c3cn(-c4ccc(CNCC(F)F)cc4Cl)cn3)n2)CC1 [Example 186, 4-(1-(2-Chloro-4-(((2,2-difluoroethyl)-amino)methyl)phenyl)-1H-imidazol-4-yl)-N-(1-(methylsulfonyl)-piperidin-4-yl)-5-(trifluoromethyl)-pyrimidin-2-amine]"
9,≥ 7.30,"CS(=O)(=O)N1CCC(Nc2ncc(C(F)(F)F)c(-c3cn(-c4ccc(CN5CCCC5)cc4C#N)cn3)n2)CC1 [Example 346, 2-(4-(2-((1-(Methylsulfonyl)piperidin-4-yl)amino)-5-(trifluoromethyl)pyrimidin-4-yl)-1H-imidazol-1-yl)-5-(pyrrolidin-1-ylmethyl)benzonitrile]"
10,≥ 7.30,"C[C@@H]1CN(S(C)(=O)=O)CC[C@@H]1Nc1ncc(C(F)(F)F)c(-c2cn(-c3ccc(C4CCCCN4)cc3Cl)cn2)n1 (single isomer, unassigned) [Example 277]"
11,≥ 7.30,"Cc1nc(-c2nc(NC3CCN(S(C)(=O)=O)CC3)ncc2C(F)(F)F)cn1-c1ccc(CNC2CC2)cc1F [Example 356, 4-(1-(4-((Cyclopropylamino)methyl)-2-fluorophenyl)-2-methyl-1H-imidazol-4-yl)-N-(1-(methylsulfonyl)piperidin-4-yl)-5-(trifluoromethyl)pyrimidin-2-amine]"
12,≥ 7.30,"CS(=O)(=O)N1CCC(Nc2ncc(C(F)(F)F)c(-c3cn(-c4ccc(CNC5CC5)cc4Cl)cn3)n2)CC1 [Example 190, 4-(1-(2-Chloro-4-((cyclopropylamino)-methyl)phenyl)-1H-imidazol-4-yl)-N-(1-(methylsulfonyl)-piperidin-4-yl)-5-(trifluoromethyl)-pyrimidin-2-amine]"
13,≥ 7.30,"CNC(C)c1cccc(-n2cnc(-c3nc(NC4CCN(S(C)(=O)=O)CC4)ncc3C(F)(F)F)c2)c1Cl (centres unmarked) [Example 377, 4-(1-(2-Chloro-3-(1-(methylamino)ethyl)phe-nyl)-1H-imidazol-4-yl)-N-(1-(methylsulfonyl)piperidin-4-yl)-5-(trifluoromethyl)pyrimi-din-2-amine]"
14,≥ 7.30,"CCN1CC(c2ccc(-n3cc(-c4nc(NC5CCN(S(C)(=O)=O)CC5)ncc4C(F)(F)F)nc3C)c(F)c2)C1 [Example 418, 4-(1-(4-(1-Ethylazetidin-3-yl)-2-fluorophenyl)-2-methyl-1H-imidazol-4-yl)-N-(1-(methylsulfonyl)piperidin-4-yl)-5-(trifluoromethyl)pyrimidin-2-amine]"
15,≥ 7.30,"Cc1ccc(-n2cnc(-c3nc(NC4CCN(S(C)(=O)=O)CC4)ncc3C(F)(F)F)c2)c(C#N)n1 [Example 36, 6-Methyl-3-(4-(2-((1-(methylsulfonyl)piperidin-4-yl)amino)-5-(trifluoromethyl)pyrimidin-4-yl)-1H-imidazol-1-yl)picolinonitrile]"
16,≥ 7.30,"COc1ccc(-n2cnc(-c3nc(N[C@H]4CCN(S(C)(=O)=O)C[C@H]4F)ncc3C(F)(F)F)c2)c(C#N)n1 [Example 52, 3-(4-(2-(((3R,4S)-3-Fluoro-1-(methylsulfonyl)piperidin-4-yl)amino)-5-(trifluoromethyl)pyrimidin-4-yl)-1H-imidazol-1-yl)-6-methoxypicolinonitrile]"
17,≥ 7.30,"C[C@@H]1CN(S(C)(=O)=O)CC[C@@H]1Nc1ncc(C(F)(F)F)c(-c2cn(-c3ccc(CN4CCC4)cc3Cl)cn2)n1 [Example 219, 4-(1-(4-(Azetidin-1-ylmethyl)-2-chloro-phenyl)-1H-imidazol-4-yl)-N-((3R,4S)-3-methyl-1-(methyl-sulfonyl)piperidin-4-yl)-5-(trifluoro-methyl)pyrimidin-2-amine]"
18,≥ 7.30,"C[C@@H]1CN(S(=O)(=O)c2cn(C)cn2)CC[C@@H]1Nc1ncc(C(F)(F)F)c(-c2cn(CC(F)F)cn2)n1 [Example 337, 4-(1-(2,2-Difluoroethyl)-1H-imidazol-4-yl)-N-((3R,4S)-3-methyl-1-((1-methyl-1H-imidazol-4-yl)sulfonyl)piperidin-4-yl)-5-(trifluoromethyl)pyrimidin-2-amine]"
19,≥ 7.30,"Cc1nc(-c2nc(NC3CCN(S(C)(=O)=O)CC3)ncc2C(F)(F)F)cn1-c1ccc(C2CN(C)C2)cc1F [Example 417, 4-(1-(2-Fluoro-4-(1-methylazetidin-3-yl)phenyl)-2-methyl-1H-imidazol-4-yl)-N-(1-(methylsulfonyl)piperidin-4-yl)-5-(trifluoromethyl)pyrimidin-2-amine]"
20,≥ 7.30,"CS(=O)(=O)N1CCC(Nc2ncc(C(F)(F)F)c(-c3cn(-c4ccc(C#N)nc4C(F)F)cn3)n2)CC1 [Example 100, 6-(Difluoromethyl)-5-(4-(2-((1-(methyl-sulfonyl)piperidin-4-yl)amino)-5-(trifluoro-methyl)pyrimidin-4-yl)-1H-imidazol-1-yl)picolinonitrile]"
